Measurements from patent US12673084B2, “Compositions and methods for combinatorial drug discovery in nanoliter droplets” (The Broad Institute, Inc., priority 2017, dated 2026).
Starred links: 1 amine or outer side, 2 acyl side, 3 side chain; linkers in the order of their positions; H or OH if unused. Non-standard residues stand in square brackets, D forms with d. Residues, ends and D or L forms follow the SMILES beside them. Groups on a side chain read outwards from the residue. *: point of attachment. Ethylenediamine = C(CN[*:2])N[*:1]; Hyp = O=C(O)[C@@H]1C[C@@H](O)CN1; Phg = N[C@H](C(=O)O)c1ccccc1; CO = O=C([*:1])[*:2]; Bn = c1ccc(C*)cc1

Assays:
E. coli K-12 MG1655 = experiment: Antibiotic potentiation primary screen in nanoliter droplet microwell array (GFP growth, Bliss score); format: cell-based, Escherichia coli; details: for Primary screening prediction of synergy with tetracycline: compound 100 μM x tetracycline; for Primary screening call, pilot phase: pilot phase of screen; for Interaction between Tedizolid and Pasireotide (relative GFP): each 100 μM, same microwell array, FIG. 34
Description: To perform the antibiotic potentiation screen, each microwell chip received droplets containing a total of 64 input conditions, with 32 held constant across all chips, and 32 that vary on each chip (FIG. 3F). The first 32, held fixed, consisted of 30 antibiotic conditions (10 antibiotics×3 concentrations, no cells), and 2 media controls (no cells). The second 32 consisted of 1-2 positive controls (sulbactam 20 μM, + cells; or erythromycin 5 μM, + cells), 1-2 negative blank controls (+ cells), 2-4 media controls (+ cells), and 24-28 variable compounds (100 μM, + cells). All conditions were in cation-adjusted Mueller Hinton broth media, 2% DMSO (all concentrations reported are final concentrations).
This setup allowed the screen to be performed in a divide-and-conquer format. The repurposing compound library is composed of 4,160 compounds across 52 96-well plates (80 compounds per plate, with controls in column 1 and 12). Each 96-well plate was divided into 3 groups of 32, each run on a separate chip but pooled with the same set of antibiotics-carrying droplets.
E. coli K-12 MG1655 with plasmid-mediated constitutive expression of GFP was prepared as described above, and added to all conditions described as “+ cells” just prior to emulsification. After loading, imaging, and merging, microwell arrays were incubated at 37° C. (static), and then later imaged again to measure growth by GFP fluorescence.
To estimate synergy between compounds and antibiotics, the Bliss Independence metric was used.
The net growth inhibition for antibiotic A from microwells carrying an antibiotic A (no cells) droplet, and a media (+ cells) droplet were estimated. The net growth inhibition of a screening compound from microwells carrying compound B (+ cells) droplet, and a media (no cells) droplet were also estimated. All growth values were normalized to microwells containing a pair of media (+ cells) and media (no cells) droplets, and estimated synergy using the Bliss Independence metric. Since each antibiotic was present at 3 concentrations, a metric was summed for the compound across each of the 3 conditions to yield a final metric called “Bliss Score.” Compounds with net growth inhibition exceeding 80% were removed from analysis.
To estimate the uncertainty in the Bliss Score measurement, all microwells in the array were bootstrap resampled (100 iterations) to the number of counted for each pair of inputs and recomputed Bliss Scores to estimate a sampling distribution and standard error.

[1] = test system: recombinant, homomeric GluR1 and GluR3 receptors; details: cited from earlier work
[2] = test system: Native AMPA/kainate receptors, pyramidal neurons; details: cited from earlier work
[3] = test system: Native AMPA/kainate receptors, interneurons; details: cited from earlier work
[4] = cited from earlier work
Rac = Rac (Homo sapiens, UniProt P63000); details: cited from earlier work
[5] = target: T1, receptors containing edited GluR2 subunits (Homo sapiens, UniProt P42262, Q607R); details: 100 microM compound; n=5 oocytes; Vh −80 mV; cited from earlier work
T1 construct: host or cells: Xenopus oocytes expressing recombinant receptors
T1 sequence (P42262 25-883 Q607R): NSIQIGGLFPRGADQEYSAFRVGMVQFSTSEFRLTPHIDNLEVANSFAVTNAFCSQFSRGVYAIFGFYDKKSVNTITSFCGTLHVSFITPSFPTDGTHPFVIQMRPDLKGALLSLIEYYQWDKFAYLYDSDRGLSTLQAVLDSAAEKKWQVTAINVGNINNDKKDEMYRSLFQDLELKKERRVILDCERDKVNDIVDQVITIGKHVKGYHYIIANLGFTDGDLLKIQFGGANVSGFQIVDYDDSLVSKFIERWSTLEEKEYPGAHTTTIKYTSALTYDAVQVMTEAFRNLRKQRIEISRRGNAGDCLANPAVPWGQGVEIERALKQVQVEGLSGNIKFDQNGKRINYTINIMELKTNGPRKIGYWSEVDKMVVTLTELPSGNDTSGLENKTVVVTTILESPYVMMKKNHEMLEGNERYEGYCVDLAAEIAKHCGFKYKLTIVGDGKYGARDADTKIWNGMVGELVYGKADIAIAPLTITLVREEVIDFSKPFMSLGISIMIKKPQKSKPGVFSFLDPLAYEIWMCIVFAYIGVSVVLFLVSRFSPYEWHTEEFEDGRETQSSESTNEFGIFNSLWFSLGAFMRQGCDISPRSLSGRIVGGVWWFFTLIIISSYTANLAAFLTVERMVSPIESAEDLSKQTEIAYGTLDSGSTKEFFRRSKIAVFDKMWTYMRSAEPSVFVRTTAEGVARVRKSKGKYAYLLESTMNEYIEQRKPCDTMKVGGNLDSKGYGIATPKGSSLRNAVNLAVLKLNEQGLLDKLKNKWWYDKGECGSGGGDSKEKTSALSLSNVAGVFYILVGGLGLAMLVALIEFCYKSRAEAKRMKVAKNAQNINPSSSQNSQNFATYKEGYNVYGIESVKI

somatostatin receptor 5 = somatostatin receptor 5 (Homo sapiens, UniProt P35346); details: cited from earlier work
Sequence of somatostatin receptor 5 (P35346 whole entry): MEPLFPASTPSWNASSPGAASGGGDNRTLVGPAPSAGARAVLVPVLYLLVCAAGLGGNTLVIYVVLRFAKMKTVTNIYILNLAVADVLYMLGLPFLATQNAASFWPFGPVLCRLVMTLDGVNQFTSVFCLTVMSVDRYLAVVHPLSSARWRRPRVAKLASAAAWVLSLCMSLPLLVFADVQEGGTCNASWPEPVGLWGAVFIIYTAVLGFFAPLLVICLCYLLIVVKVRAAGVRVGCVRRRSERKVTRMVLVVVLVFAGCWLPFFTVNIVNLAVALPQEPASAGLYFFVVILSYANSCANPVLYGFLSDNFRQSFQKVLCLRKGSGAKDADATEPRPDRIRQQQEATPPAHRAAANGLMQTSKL

[6] = 416 COPD patients; dry-powder inhaler; cited from earlier work
[7] = year-long trial; cited from earlier work
[8] = 12 weeks, cited from earlier work
P. aeruginosa = experiment: Checkerboard drug interaction assay ampicillin x sulbactam, 96-well broth culture vs microdroplet platform; format: cell-based, Pseudomonas aeruginosa
Text: FIG. 27 is a graph of a comparison checkerboard assay between 96-well plates and microwell array platform. Comparison of checkerboard drug interaction assay in P. aeruginosa for ampicillin and a beta-lactamase inhibitor, sulbactam.

## Br.Br.NCCCCCNCC12CC3CC(CC(C3)C1)C2 [IEM 1754, 1-ammonio-5-(1-adamantane-methylammoniopentanedibromide)]
E. coli K-12 MG1655; E. coli
  Primary screening prediction of synergy with tetracycline: predicted neutral
  Primary screening call, pilot phase: hit
[1]; homomeric GluR1 and GluR3
  times less potent than IEM-1460: 3.8 times
[2]
  potency relative to IEM-1460: equipotent
[3]
  times less potent than IEM-1460: approximately 3 times

## CCN(CC)CCCC(C)Nc1nc(C)cc(Nc2ccc3nc(C)cc(N)c3c2)n1.Cl.Cl.Cl (racemic) [NSC23766]
E. coli K-12 MG1655; compound 100 μM x novobiocin, E. coli
  Primary screening prediction of synergy with novobiocin: synergy predicted
E. coli K-12 MG1655; E. coli
  Primary screening prediction of synergy with tetracycline: no synergy predicted

## CC[C@H]1OC(=O)[C@H](C)[C@@H](O[C@H]2C[C@@](C)(OC)[C@@H](O)[C@H](C)O2)[C@H](C)[C@@H](O[C@@H]2O[C@H](C)C[C@H](N(C)C)[C@H]2O)[C@](C)(O)C[C@@H](C)C(=O)[C@H](C)[C@@H](O)[C@]1(C)O [erythromycin]
E. coli K-12 MG1655; positive control, expected value, erythromycin 5 μM x tetracycline, E. coli
  Bliss score with tetracycline: ~ 0.5

## C[C@@H](O)[C@@H]1NC(=O)[C@H](CCCCN)NC(=O)[C@@H](Cc2c[nH]c3ccccc23)NC(=O)[C@H](Cc2ccccc2)NC(=O)[C@@H](NC(=O)[C@H](N)Cc2ccccc2)CSSC[C@@H](C(=O)N[C@H](CO)[C@@H](C)O)NC1=O [Octreotide]
[4]
  half-life: 1.5 h

## CCn1c2ccccc2c2cc(Nc3ccnc(NCCCN4CCOCC4)n3)ccc21 (racemic) [EHop-016]
Rac
  more efficient inhibitor of Rac activity than NSC23766: 100 fold

## C[N+](C)(C)CCCCCNCC12CC3CC(CC(C3)C1)C2 [IEM-1460, 1-trimethylammonio-5-(1-adamantane-methyl-ammoniopentanedibromide)]
[1]; holding potential (Vh) of −80 mV, open channel block
  IC50: 1.6 µM
[5]
  inhibition of responses to 100 microM kainate: 7.8+/−2.4%
[2]; Vh=−80 mV
  IC50: 1620 µM
[3]; Vh=−80 mV
  IC50: 1.6 µM

## Cn1nnc(-c2ccc(-c3ccc(N4C[C@H](CO)OC4=O)cc3F)cn2)n1 [Tedizolid]
E. coli K-12 MG1655
  Interaction between Tedizolid and Pasireotide (relative GFP): synergistic interaction

## NCCCC[C@@H]1NC(=O)[C@@H](Cc2c[nH]c3ccccc23)NC(=O)[C@H](c2ccccc2)NC(=O)[C@@H]2C[C@@H](OC(=O)NCCN)CN2C(=O)[C@H](Cc2ccccc2)NC(=O)[C@H](Cc2ccc(OCc3ccccc3)cc2)NC1=O [Pasireotide, cyclo[{4-(NH2-C2H4-NH—CO—O-)Pro}-Phg-DTrp-Lys-Tyr(4-Bzl)-Phe]] (cyclo([Hyp]([CO-Ethylenediamine])[Phg][dW]KY(Bn)F))
E. coli K-12 MG1655
  Interaction between Tedizolid and Pasireotide (relative GFP): synergistic interaction
Somatostatin receptor 5
  increased affinity to somatostatin receptor 5 compared to other somatostatin analogs: 40 fold

## O=C(CNC(=O)c1ccc(Cl)cc1)NO [Benurestat, 2-(para-chlorobenzamide)-acetohydroxamic acid]
E. coli K-12 MG1655; compound 100 μM x vancomycin, E. coli
  Primary screening call with vancomycin: screening hit
E. coli K-12 MG1655; E. coli
  Primary screening call, pilot phase: hit

## CCc1cc2c(cc1CC)CC(NC[C@H](O)c1ccc(O)c3[nH]c(=O)ccc13)C2 [Indacaterol]
E. coli K-12 MG1655; compound 100 μM x erythromycin, E. coli
  Primary screening call with erythromycin: screening hit
[6]
  FEV1 (both trough and AUC) compared to placebo: statistically improved
[7]
  improving FEV1 compared with twice-daily formoterol: significantly more effective
[8]
  effect on FEV1 compared with tiotropium: no statistical difference
[8]; vs tiotropium
  St. George's Respiratory Questionnaire (SGRQ) total score: greater improvements
  transition dyspnoea index (TDI) total score: greater improvements

## CC1(C)[C@H](C(=O)O)N2C(=O)C[C@H]2S1(=O)=O [sulbactam]
E. coli K-12 MG1655; positive control, expected value, sulbactam 20 μM x ampicillin, E. coli
  Bliss score with ampicillin: ~ 1
P. aeruginosa; 96-well broth culture
  FIC with ampicillin: <= 0.5
P. aeruginosa; microdroplet platform
  FIC with ampicillin: <= 0.3125
